According to PMC3501516, “Anti-Diabetic Efficacy and Impact on Amino Acid Metabolism of GRA1, a Novel Small-Molecule Glucagon Receptor Antagonist” (PLoS ONE, 2012):
Marks after values point to notes of the source that are not given here.

Tests used:
human GCGR (hGCGR) = molecular target: T1, human GCGR (hGCGR) (Homo sapiens, UniProt P47871); experiment: Inhibition of 125I-glucagon binding to hGCGR in membranes of CHO cells expressing hGCGR; conditions: CHO cell membranes
T1 construct: expressed in transfected cells
T1 sequence (P47871 26-477): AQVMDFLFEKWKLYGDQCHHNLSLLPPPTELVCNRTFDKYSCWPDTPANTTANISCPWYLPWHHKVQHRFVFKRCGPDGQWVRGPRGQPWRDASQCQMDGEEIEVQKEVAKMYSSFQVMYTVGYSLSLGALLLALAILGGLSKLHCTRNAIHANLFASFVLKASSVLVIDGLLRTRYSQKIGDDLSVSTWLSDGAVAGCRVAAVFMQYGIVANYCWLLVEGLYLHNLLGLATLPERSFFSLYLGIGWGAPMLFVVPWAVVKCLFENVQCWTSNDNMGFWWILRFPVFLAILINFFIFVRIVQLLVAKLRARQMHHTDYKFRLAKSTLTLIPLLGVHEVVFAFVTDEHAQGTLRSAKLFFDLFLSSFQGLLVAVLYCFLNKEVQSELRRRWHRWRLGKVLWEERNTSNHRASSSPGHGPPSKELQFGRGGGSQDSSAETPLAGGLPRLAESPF
Source text: Transfected Chinese hamster ovary (CHO) cell lines were acquired and maintained as previously described, [20]. These included separate cell lines stably expressing human GCGR (hGCGR), mouse GCGR, rhesus GGCR, glucose-dependent insulinotropic peptide receptor (GIPR), GLP-1 receptor (GLP-1R), pituitary adenylate cyclase-activating polypeptide receptor type 1 (PAC1R), and vasoactive adenylate cyclase-activating polypeptide receptor type 2 (VPAC2R). Inhibition of glucagon binding to hGCGR was assayed in cell membranes prepared from the line of CHO cells that expressed the hGCGR. Functional antagonism was assayed by measuring the production of cAMP in intact CHO cells stimulated by agonists specific for their cognate receptors (i.e., glucagon for GCGR-expressing cell lines, GIP for the GIPR-expressing line, etc.). Primary human hepatocytes were obtained from In Vitro Technologies (Baltimore, MD) and glucagon-stimulated glycogenolysis was studied in these as previously described.

DIO hGCGR mice = experiment: Chronic GRA1 treatment of diet-induced obese (DIO) hGCGR mice; assay type: in vivo, hGCGR mouse; conditions: for Free fatty acid, terminal plasma / Insulin, terminal plasma / LDL cholesterol, terminal plasma / Glucagon, terminal plasma / Triglyceride, terminal plasma / Non-LDL cholesterol, terminal plasma / Cholesterol, terminal plasma: 10 weeks; for Free fatty acid, terminal plasma: control 1.04±0.13; for Insulin, terminal plasma: control 8.5±2.0; for LDL cholesterol, terminal plasma: control 19.6±2.3; for Glucagon, terminal plasma: control 164±24; for Triglyceride, terminal plasma: control 181±11; for Non-LDL cholesterol, terminal plasma: control 205±12; for Cholesterol, terminal plasma: control 233±15
Source text: (§1) The present study made use of a line of hGCGR-expressing mouse (“hGCGR mouse”) generated previously by substituting the hGCGR gene for the mouse GCGR gene. These mice were crossed with C57BL/6J.ob/+ mice (Jackson Laboratories, Bar Harbor, ME) to obtain an hGCGR.ob/+ mouse line. The hGCGR.ob/+ mice were then intercrossed to obtain hGCGR.ob/ob, hGCGR.ob/+, and hGCGR.+/+ mice (with the hGCGR.ob/+ and hGCGR.+/+ mice serving as littermate controls). […] obese (DIO) hGCGR mice were generated by maintaining hGCGR mice on a high-fat diet (HFD) in which 45–60% of calories were in fat (Product S3282, Bio-Serv, Frenchtown, NJ). High-fat-diet-streptozotocin-treated (HFD/STZ) diabetic mice were generated in-house as previously described.
(§2) Animals were dosed chronically with GRA1 and the DPP-4 inhibitor des-fluoro-sitagliptin by administering these agents as food admixtures. The admixtures were prepared in-house and by Research Diets (New Brunswick, NJ), with drug concentrations adjusted weekly on the basis of average food consumption and animal weight to provide targeted daily doses. In the GRA1 experiments, the targeted doses were 3, 6, 10, and 30 mg/kg•day. In des-fluoro-sitagliptin experiments, the targeted dose was 200 mg/kg•day, a relatively high amount necessary because this compound has a half-life in rodents of 1–2 h.
(§3) Plasma glucagon and active GLP-1 were measured using commercial ELISA kits (Linco Research Immunoassay, St. Charles, MO). […] Plasma insulin was determined by ELISA with a commercial kit (ALPCO Diagnostics, Windham, NH). Plasma concentrations of glycated hemoglobin A1c (HbA1c) were measured using a Micromat II test kit from Bio-Rad Laboratories (Hercules, CA). Total cholesterol, low-density lipoprotein cholesterol (LDL-c) and non-LDL-c, and aspartate aminotransferase were measured using a Roche P Modular Clinical Chemistry analyzer (Indianapolis, IN).
(§4) Figure 4 GRA1 lowers blood glucose in the DIO hGCGR and hGCGR.ob/ob mouse. Mean (±SEM) blood glucose concentrations in (A) non-fasted and (B) fasted DIO hGCGR mice treated with approximately 3 and 10 mg/kg·day GRA1 provided as a food admixture. (Additional data from this study are in Table 2). (C) Mean (±SEM) blood glucose concentrations in the hGCGR.ob/ob mouse following single oral doses of 1, 3, or 10 mg/kg GRA1 or vehicle. (D) Mean (±SEM) non-fasted blood glucose concentrations in hGCGR.ob/ob mice treated for 2–8 weeks with control diet or 10 mg/kg·day GRA1 administered as diet admixture. *p<0.05, **p<0.01, and ***p<0.001 in timepoint-matched comparisons with controls; n = 8 in each group.

hGCGR.ob/ob mice = experiment: Antihyperglycemic efficacy in hGCGR.ob/ob mice (acute and chronic); assay type: in vivo, hGCGR.ob/ob mouse
Source text: as §1
(§5) Acute glucose lowering was studied in non-fasted hGCGR.ob/ob mice and HFD/STZ mice administered single doses p.o. of 1, 3 and 10 mg/kg GRA1 in 10 mL/kg 0.5% aqueous methylcellulose. Animals were fasted during the interval between dosing and the final blood glucose measurement. Glucose was measured in blood from tail bleeds using a OneTouch glucometer. In the experiments with hGCGR HFD/STZ mice, treatment groups were matched with respect to body weight and blood glucose levels.
as §2, §3, §4

hGCGR HFD/STZ mice = experiment: Antihyperglycemic efficacy in hGCGR HFD/STZ mice (acute, chronic, combination with des-fluoro-sitagliptin); assay type: in vivo, hGCGR mouse
Source text: as §1, §5, §2, §3
Figure 5 GRA1 lowers glucose in hGCGR HFD/STZ mice and further enhances the efficacy of a DPP-4 inhibitor. (A) Mean (±SEM) blood glucose hGCGR HFD/STZ mice treated with a single dose of 1, 3, or 10 mg/kg GRA1. (B) Non-fasted blood glucose concentrations in hGCGR HFD/STZ mice treated for 6 weeks with 10 mg/kg·day GRA1, 200 mg/kg·day des-fluoro-sitagliptin (des-F-sita), or the two agents in combination. (Additional data from this study are in Table 4.) *p<0.05, **p<0.01, and ***p<0.001 versus HFD/STZ controls; ^#non-significant (p>0.05) versus non-STZ controls; n = 8–15 animals per group.

SMILES: COc1ccc2cc(-c3cc(-c4cc(C(F)(F)F)ccc4F)nn3[C@@H](C)c3ccc(C(=O)NCCC(=O)O)cc3)ccc2c1 [GRA1, N-[4-((1S)-1-{3-(2-fluoro-5-trifluoromethylphenyl)-5-[6-methoxynaphth-2-yl]-1H-pyrazol-1-yl}ethyl)benzoyl]-β-alanine]
- IC50 (human GCGR (hGCGR)): 4 nM
- Effect on blood glucose (DIO hGCGR mice; 1–10 weeks, 3 or 10 mg/kg•day): significant, sustained reductions in blood glucose
- Food intake and body weight (DIO hGCGR mice; 3 or 10 mg/kg•day (data not shown)): not affected
- Increase of plasma glucagon (DIO hGCGR mice; 3 or 10 mg/kg•day (either dose)): approximately 2 fold
- Free fatty acid, terminal plasma (DIO hGCGR mice; 3 mg/kg•day): 0.84 ± 0.08 mM
- Insulin, terminal plasma (DIO hGCGR mice; 3 mg/kg•day): 4.2 ± 1.1 ng/mL
- LDL cholesterol, terminal plasma (DIO hGCGR mice; 3 mg/kg•day): 25.4±2.9 mg/dLl
- Glucagon, terminal plasma (DIO hGCGR mice; 3 mg/kg•day): 374±53* pg/mL
- Triglyceride, terminal plasma (DIO hGCGR mice; 3 mg/kg•day): 141±13* mg/dL
- Non-LDL cholesterol, terminal plasma (DIO hGCGR mice; 3 mg/kg•day): 216 ± 16 mg/dL
- Cholesterol, terminal plasma (DIO hGCGR mice; 3 mg/kg•day): 255 ± 17 mg/dL
- Free fatty acid, terminal plasma (DIO hGCGR mice; 10 mg/kg•day): 0.69±0.04* mM
- Insulin, terminal plasma (DIO hGCGR mice; 10 mg/kg•day): 5.7 ± 1.4 ng/mL
- LDL cholesterol, terminal plasma (DIO hGCGR mice; 10 mg/kg•day): 19.4±2.4 mg/dLl
- Glucagon, terminal plasma (DIO hGCGR mice; 10 mg/kg•day): 343 ± 85 pg/mL
- Triglyceride, terminal plasma (DIO hGCGR mice; 10 mg/kg•day): 122±10** mg/dL
- Non-LDL cholesterol, terminal plasma (DIO hGCGR mice; 10 mg/kg•day): 186 ± 7 mg/dL
- Cholesterol, terminal plasma (DIO hGCGR mice; 10 mg/kg•day): 213 ± 8 mg/dL
- Islet morphology and ratio of insulin-positive to glucagon-positive cells (pancreas immunohistochemistry) (DIO hGCGR mice; treated vs control (data not shown)): no significant differences
- Non-fasted blood glucose lower than control diet (hGCGR.ob/ob mice; 10 mg/kg•day, 2, 4 and 8 weeks): 40–50%
- Food intake, body weight, fasting insulin levels vs control diet (hGCGR.ob/ob mice; 10 mg/kg•day, 8 weeks (data not shown)): No differences
- Mean fasted blood glucose (hGCGR.ob/ob mice; 10 mg/kg•day, 8 weeks, control diet 189±36): 90.8 ± 7.8 mg/dL
- Mean plasma glucagon (hGCGR.ob/ob mice; 10 mg/kg•day, 8 weeks, control diet 959±90): 1356 ± 113 pg/mL
- Total GLP-1 (hGCGR.ob/ob mice; 10 mg/kg•day, 8 weeks, controls 15.6±2.0): 26.5 ± 3.0 pM
- Effect on blood glucose, single dose (hGCGR.ob/ob mice; single doses of 3 and 10 mg/kg vs vehicle): lowered blood glucose significantly
- HbA1c (hGCGR HFD/STZ mice; 5 weeks of treatment, GRA1 10 mg/kg, Des-F-sita 200 mg/kg, control diet 6.1±0.4): 5.6±0.4%
- 6-h fasting blood glucose (hGCGR HFD/STZ mice; 5 weeks of treatment, GRA1 10 mg/kg, Des-F-sita 200 mg/kg, control diet 323±33): 297 ± 39 mg/dL
- Antihyperglycemic effect during chronic dosing (non-fasted blood glucose) (hGCGR HFD/STZ mice; 6 weeks, GRA1 10 mg/kg·day, des-fluoro-sitagliptin 200 mg/kg·day): significant and sustained
- Liver Triglyceride (hGCGR HFD/STZ mice; 6 weeks, necropsy tissue, GRA1 10 mg/kg, Des-F-sita 200 mg/kg, control diet 143±10): 163 ± 11 µg/mg
- Free fatty acid (hGCGR HFD/STZ mice; 6 weeks, terminal plasma, GRA1 10 mg/kg, Des-F-sita 200 mg/kg, control diet 1.4±0.2): 1.3 ± 0.3 mM
- Active GLP-1 (hGCGR HFD/STZ mice; 6 weeks, terminal plasma, GRA1 10 mg/kg, Des-F-sita 200 mg/kg, control diet 2.5±0.1): 2.7 ± 0.1 pM
- Inactive GLP-1 (hGCGR HFD/STZ mice; 6 weeks, terminal plasma, GRA1 10 mg/kg, Des-F-sita 200 mg/kg, control diet 8.1±1.1): 8.6 ± 0.4 pM
- Plasma glucagon (hGCGR HFD/STZ mice; 6 weeks, terminal plasma, GRA1 10 mg/kg, Des-F-sita 200 mg/kg, control diet 133±21): 209±24* pg/ml
- Triglyceride (hGCGR HFD/STZ mice; 6 weeks, terminal plasma, GRA1 10 mg/kg, Des-F-sita 200 mg/kg, control diet 184±26): 145±22* mg/dL
- Blood glucose after single dose versus non-diabetic controls (hGCGR HFD/STZ mice; single dose 10 mg/kg): comparable to those observed in non-diabetic control animals for 24 h
- Effect on blood glucose, single dose (hGCGR HFD/STZ mice; single doses of 3 and 10 mg/kg): reduced blood glucose significantly and substantially
